Source: patent US4438207A, “Radioimmunoassay for cannabinoids” (priority 1981, dated 1984)

Columns and labels:
[1] = tested on: Tetrahydrocannabinol Antibody; assay: ^125 I THC radioimmunoassay response curve, dextran-coated charcoal separation; format: binding, rabbit
[2] = Urine THC levels as a function of time after smoking known dosages; details: THC 2.5 mg smoked
[3] = experiments with humans; cited from earlier work
[4] = tested on: Tetrahydrocannabinol Antibody; assay: ^125 I THC radioimmunoassay response curve, anion exchange resin separation; format: binding, rabbit; details: resin reagent
[5] = tested on: antiserum; assay: Binding of iodinated antigen to THC antiserum; set-up: species or system rabbit
Method: A total of 50 μl of a solution of […] of (6aR-trans)-N-[2-(4-hydroxyphenyl)ethyl]-4-(6a,7,8,10a-Tetrahydro-6,6,9-trimethyl-3-pentyl-6H-dibenzo[b,d]pyran-1-oxy)butanamide in 1 ml of 100% alcohol was added to a vial containing 5 mCi of Na^125 I having a radioactive concentration of >100 mCi/ml. To this mixture was then added a total of 40 μl of chloramine T solution (5 mg/ml in 75% EtOH; 25% Borate buffer 0.1 M, pH 8.4). The reaction mixture was mixed for 180 seconds. After mixing, a total of 40 μl of a 1% solution of sodium meta bisulfite (75% EtOH, 25% Tris buffer 0.1 M, pH 7.0) was added to the reaction vial, and the vial contents were mixed for 30 seconds to stop the reaction.
The mixture was removed from the vial and placed on the surface of a Bio-Gel P-2 column (1.5×40 cm, 100-200 mesh) until completely absorbed on the column bed. Approximately 200 ml of 60% Tris -40% EtOH were added, and 100×1-2 ml fractions were collected. The eluate contained the above-captioned, labeled antigen.
After selection of the appropriate fractions (≥50% binding), the fractions were pooled and diluted 1:50 in 0.01 M phosphate buffered saline (PBS) containing 25% ethanol with 0.1% sodium azide and 0.002-0.007% butylated hydroxy toluene (BHT) as preservatives.
[…]. Multiple iodinations were performed on Δ^9 -tetrahydrocannabinol,and the radioisotopically-labeled reagent was used as the ^125 I-labeled antigen. The elution patterns varied considerably. In general, there were numerous small peaks in the elution patterns of most of the iodination products with the percent binding being lower than 50%. On occasion, there were two major peaks with insufficient binding (<50%) in either peak.
. Subsequent injections were made at four-week intervals with immunogen in Freund's incomplete adjuvant. Bleedings, obtained by venipuncture from immunized rabbits, were allowed to stand at 2°-8° C. temperature until the clot had formed. The serum was decanted and stored at from -20° to 5° C.

CCCCCc1cc(O)c2c(c1)OC(C)(C)[C@@H]1CCC(C)=C[C@@H]21 [THC, Δ-9-tetrahydrocannabinol]
DPM ([1]; 12.5 ng/ml THC): 13946 DPM | DPM ([1]; 25.0 ng/ml THC): 11964 DPM | DPM ([1]; 50.0 ng/ml THC): 11389 DPM | DPM ([1]; 100.0 ng/ml THC): 11342 DPM | DPM ([1]; 200.0 ng/ml THC): 10474 DPM | Tetrahydrocannabinol Concentration in urine ([2]; subject 1 (smoked marijuana prior to study), sodium azide added, 0 h): 10.0 ng THC E/ml | Tetrahydrocannabinol Concentration in urine ([2]; subject 1 (smoked marijuana prior to study), sodium azide added, 0-4 h): 29.0 ng THC E/ml | Tetrahydrocannabinol Concentration in urine ([2]; subject 1 (smoked marijuana prior to study), sodium azide added, 4-8 h): 70.0 ng THC E/ml | Tetrahydrocannabinol Concentration in urine ([2]; subject 1 (smoked marijuana prior to study), sodium azide added, 12-24 h): 72.5 ng THC E/ml | Tetrahydrocannabinol Concentration in urine ([2]; subject 1 (smoked marijuana prior to study), sodium azide added, 24-48 h): 41.5 ng THC E/ml | Tetrahydrocannabinol Concentration in urine ([2]; subject 1 (smoked marijuana prior to study), sodium azide added, 48-72 h): 40.0 ng THC E/ml | Tetrahydrocannabinol Concentration in urine ([2]; subject 1 (smoked marijuana prior to study), 0 h): 28.0 ng THC E/ml | Tetrahydrocannabinol Concentration in urine ([2]; subject 1 (smoked marijuana prior to study), 0-4 h): 45.0 ng THC E/ml | Tetrahydrocannabinol Concentration in urine ([2]; subject 1 (smoked marijuana prior to study), 4-8 h): 37.5 ng THC E/ml | Tetrahydrocannabinol Concentration in urine ([2]; subject 1 (smoked marijuana prior to study), 12-24 h): 45.0 ng THC E/ml | Tetrahydrocannabinol Concentration in urine ([2]; subject 1 (smoked marijuana prior to study), 24-48 h): 20.0 ng THC E/ml | Tetrahydrocannabinol Concentration in urine ([2]; subject 1 (smoked marijuana prior to study), 48-72 h): 27.5 ng THC E/ml | Tetrahydrocannabinol Concentration in urine ([2]; subject 2, sodium azide added, 0 h): 5.0 ng THC E/ml | Tetrahydrocannabinol Concentration in urine ([2]; subject 2, sodium azide added, 0-4 h): 11.0 ng THC E/ml | Tetrahydrocannabinol Concentration in urine ([2]; subject 2, sodium azide added, 4-8 h): 13.5 ng THC E/ml | Tetrahydrocannabinol Concentration in urine ([2]; subject 2, sodium azide added, 8-12 h): 7.5 ng THC E/ml | Tetrahydrocannabinol Concentration in urine ([2]; subject 2, sodium azide added, 12-24 h): 17.5 ng THC E/ml | Tetrahydrocannabinol Concentration in urine ([2]; subject 2, sodium azide added, 24-48 h): 7.5 ng THC E/ml | Tetrahydrocannabinol Concentration in urine ([2]; subject 2, sodium azide added, 48-72 h): 5.0 ng THC E/ml | Tetrahydrocannabinol Concentration in urine ([2]; subject 2, 0 h): 5.0 ng THC E/ml | Tetrahydrocannabinol Concentration in urine ([2]; subject 2, 0-4 h): 4.0 ng THC E/ml | Tetrahydrocannabinol Concentration in urine ([2]; subject 2, 4-8 h): 26.0 ng THC E/ml | Tetrahydrocannabinol Concentration in urine ([2]; subject 2, 8-12 h): 10.0 ng THC E/ml | Tetrahydrocannabinol Concentration in urine ([2]; subject 2, 12-24 h): 7.5 ng THC E/ml | Tetrahydrocannabinol Concentration in urine ([2]; subject 2, 24-48 h): 22.5 ng THC E/ml | Tetrahydrocannabinol Concentration in urine ([2]; subject 2, 48-72 h): 12.5 ng THC E/ml | excretion route of metabolites [3]: mainly via feces | extent of metabolism [3]: almost complete metabolism | DPM ([4]; 12.5 ng/ml THC): 31096 DPM | DPM ([4]; 25 ng/ml THC): 29212 DPM | DPM ([4]; 50 ng/ml THC): 27945 DPM | DPM ([4]; 100 ng/ml THC): 26333 DPM | DPM ([4]; 200 ng/ml THC): 25651 DPM

(6aR-trans)-N-[2-hydroxyphenyl)ethyl]-4-(6a,7,10,10a-Tetrahydro-6,6,9-trimethyl-3-pentyl-6H-dibenzo[b,d]pyran-1-oxy)butanamide [Δ^9 -Tetrahydrocannabinol Derivative]
binding properties retained ([5]; antigen reagent, at least six weeks): > 50% | binding of iodinated product, major peak ([5]; upon iodination, major peak, fractions #10 to #15): > 50% | binding of iodinated product, minor peak ([5]; upon iodination, minor peak, fractions #30 to #35): no binding
